Assay results: PMC12454493, “Insight on novel sulfamoylphenyl pyrazole derivatives as anticancer carbonic anhydrase inhibitors” (Molecular Diversity, 2024)
Several values for one entry are separate records, joined by “and”; a condition that tells them apart may be missing. Equal entries are not always repeated.

Tests used:
[1] = test system: OVCAR-5; assay: NCI-60 one-dose SRB screen (Ovarian cancer); assay type: cell-based; conditions: Homo sapiens, single dose 10 µM, 48 h, read-out: Growth inhibition percent (GI %)
Experimental: (§1) The National Cancer Institute (NCI) Developmental Therapeutic Program (www.dtp.nci.nih.gov) selected the 20 novel synthesized compounds 4a-e, 5a-e, 6a-c, 9a-e, 10 and 11 to test for their anticancer activity at a single dose of 10 µM using SRB assay. […] Supplementary Data S3; Table S1 presents the detailed screening results of the most promising compounds. The preliminary screening’s detailed results for the remaining compounds are elucidated in the (Supplementary Data S3; Table S2).
(§2) The guidelines of the Drug Evaluation Branch’s protocol at the NCI in Bethesda served as the basis for the in vitro anticancer screening assays. at one dose 10 µM against a panel of 60 cancer cell lines. The human tumor cell lines used belonged to nine panels: leukemia, melanoma, lung, colon, CNS, ovarian, renal, prostate and breast cancers using the sulforhodamine B (SRB) assay in a 48 h drug exposure protocol.

[2] = test system: OVCAR-3; assay: NCI-60 one-dose SRB screen (Ovarian cancer); assay type: cell-based; conditions: Homo sapiens, single dose 10 µM, 48 h, read-out: Growth inhibition percent (GI %)
Experimental: as §1, §2

[3] = test system: IGROV1; assay: NCI-60 one-dose SRB screen (Ovarian cancer); assay type: cell-based; conditions: Homo sapiens, IGROV-1, single dose 10 µM, 48 h, read-out: Growth inhibition percent (GI %)
Experimental: as §1, §2

[4] = test system: OVCAR-8; assay: NCI-60 one-dose SRB screen (Ovarian cancer); assay type: cell-based; conditions: Homo sapiens, single dose 10 µM, 48 h, read-out: Growth inhibition percent (GI %)
Experimental: as §1, §2

[5] = test system: OVCAR-4; assay: NCI-60 one-dose SRB screen (Ovarian cancer); assay type: cell-based; conditions: Homo sapiens, single dose 10 µM, 48 h, read-out: Growth inhibition percent (GI %)
Experimental: as §1, §2

[6] = test system: SK-OV-3; assay: NCI-60 one-dose SRB screen (Ovarian cancer); assay type: cell-based; conditions: Homo sapiens, single dose 10 µM, 48 h, read-out: Growth inhibition percent (GI %)
Experimental: as §1, §2

[7] = test system: NCI/ADR-RES; assay: NCI-60 one-dose SRB screen (Ovarian cancer); assay type: cell-based; conditions: Homo sapiens, single dose 10 µM, 48 h, read-out: Growth inhibition percent (GI %)
Experimental: as §1, §2

[8] = biological target: hCA XII (Homo sapiens, UniProt O43570); assay: CA inhibitory activity, spectrophotometric p-NPA assay; assay type: biochemical; conditions: p-NPA substrate, pH 7.5, 25 °C, triplicate; read-out: IC50 (µM) ± SD hCA XII
[9] = test system: KM12; assay: NCI-60 one-dose SRB screen (Colon Cancer); assay type: cell-based; conditions: Homo sapiens, single dose 10 µM, 48 h, read-out: Growth inhibition percent (GI %)
Experimental: as §1, §2

[10] = test system: SW-620; assay: NCI-60 one-dose SRB screen (Colon Cancer); assay type: cell-based; conditions: Homo sapiens, single dose 10 µM, 48 h, read-out: Growth inhibition percent (GI %)
Experimental: as §1, §2

[11] = test system: HCC-2998; assay: NCI-60 one-dose SRB screen (Colon Cancer); assay type: cell-based; conditions: Homo sapiens, single dose 10 µM, 48 h, read-out: Growth inhibition percent (GI %)
Experimental: as §1, §2

[12] = test system: HCT-15; assay: NCI-60 one-dose SRB screen (Colon Cancer); assay type: cell-based; conditions: Homo sapiens, single dose 10 µM, 48 h, read-out: Growth inhibition percent (GI %)
Experimental: as §1, §2

[13] = test system: HT29; assay: NCI-60 one-dose SRB screen (Colon Cancer); assay type: cell-based; conditions: Homo sapiens, HT-29, single dose 10 µM, 48 h, read-out: Growth inhibition percent (GI %)
Experimental: as §1, §2

[14] = test system: HCT-116; assay: NCI-60 one-dose SRB screen (Colon Cancer); assay type: cell-based; conditions: Homo sapiens, single dose 10 µM, 48 h, read-out: Growth inhibition percent (GI %)
Experimental: as §1, §2

[15] = test system: COLO 205; assay: NCI-60 one-dose SRB screen (Colon Cancer); assay type: cell-based; conditions: Homo sapiens, single dose 10 µM, 48 h, read-out: Growth inhibition percent (GI %)
Experimental: as §1, §2

[16] = test system: SNB-19; assay: NCI-60 one-dose SRB screen (CNS Cancer); assay type: cell-based; conditions: Homo sapiens, single dose 10 µM, 48 h, read-out: Growth inhibition percent (GI %)
Experimental: as §1, §2

[17] = test system: SF-295; assay: NCI-60 one-dose SRB screen (CNS Cancer); assay type: cell-based; conditions: Homo sapiens, single dose 10 µM, 48 h, read-out: Growth inhibition percent (GI %)
Experimental: as §1, §2

[18] = test system: SF-268; assay: NCI-60 one-dose SRB screen (CNS Cancer); assay type: cell-based; conditions: Homo sapiens, single dose 10 µM, 48 h, read-out: Growth inhibition percent (GI %)
Experimental: as §1, §2

[19] = test system: SNB-75; assay: NCI-60 one-dose SRB screen (CNS Cancer); assay type: cell-based; conditions: Homo sapiens, single dose 10 µM, 48 h, read-out: Growth inhibition percent (GI %)
Experimental: as §1, §2

[20] = test system: SF-539; assay: NCI-60 one-dose SRB screen (CNS Cancer); assay type: cell-based; conditions: Homo sapiens, single dose 10 µM, 48 h, read-out: Growth inhibition percent (GI %)
Experimental: as §1, §2

[21] = test system: U251; assay: NCI-60 one-dose SRB screen (CNS Cancer); assay type: cell-based; conditions: Homo sapiens, U-251, single dose 10 µM, 48 h, read-out: Growth inhibition percent (GI %)
Experimental: as §1, §2

[22] = test system: NCI-H460; assay: NCI-60 one-dose SRB screen (Non-Small Cell Lung Cancer); assay type: cell-based; conditions: Homo sapiens, single dose 10 µM, 48 h, read-out: Growth inhibition percent (GI %)
Experimental: as §1, §2

[23] = test system: A549/ATCC; assay: as above; assay type: cell-based; conditions: Homo sapiens, single dose 10 µM, 48 h, read-out: Growth inhibition percent (GI %)
Experimental: as §1, §2

[24] = test system: HOP-92; assay: as above; assay type: cell-based; conditions: Homo sapiens, single dose 10 µM, 48 h, read-out: Growth inhibition percent (GI %)
Experimental: as §1, §2

[25] = test system: HOP-62; assay: as above; assay type: cell-based; conditions: Homo sapiens, single dose 10 µM, 48 h, read-out: Growth inhibition percent (GI %)
Experimental: as §1, §2

[26] = test system: NCI-H522; assay: as above; assay type: cell-based; conditions: Homo sapiens, single dose 10 µM, 48 h, read-out: Growth inhibition percent (GI %)
Experimental: as §1, §2

[27] = test system: NCI-H23; assay: as above; assay type: cell-based; conditions: Homo sapiens, single dose 10 µM, 48 h, read-out: Growth inhibition percent (GI %)
Experimental: as §1, §2

[28] = test system: NCI-H226; assay: as above; assay type: cell-based; conditions: Homo sapiens, single dose 10 µM, 48 h, read-out: Growth inhibition percent (GI %)
Experimental: as §1, §2

[29] = test system: NCI-H322M; assay: as above; assay type: cell-based; conditions: Homo sapiens, single dose 10 µM, 48 h, read-out: Growth inhibition percent (GI %)
Experimental: as §1, §2

[30] = test system: EKVX; assay: as above; assay type: cell-based; conditions: Homo sapiens, single dose 10 µM, 48 h, read-out: Growth inhibition percent (GI %)
Experimental: as §1, §2

Sequence of hCA XII (O43570 25-354): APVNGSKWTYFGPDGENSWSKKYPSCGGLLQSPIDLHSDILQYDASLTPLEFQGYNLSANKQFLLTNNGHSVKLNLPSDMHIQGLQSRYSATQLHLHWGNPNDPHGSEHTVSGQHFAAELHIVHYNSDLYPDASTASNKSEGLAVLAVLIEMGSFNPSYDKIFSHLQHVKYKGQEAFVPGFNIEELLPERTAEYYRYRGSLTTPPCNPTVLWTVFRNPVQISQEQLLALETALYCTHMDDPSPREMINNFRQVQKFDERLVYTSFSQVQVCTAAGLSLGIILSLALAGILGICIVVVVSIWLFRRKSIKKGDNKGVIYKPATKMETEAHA

## CCOC(=O)c1ccc(NC(=O)COC(=O)c2cn(-c3ccc(S(N)(=O)=O)cc3)nc2-c2ccccc2)cc1 [Compound 5a, 2-[(4-(Ethoxycarbonyl)phenyl)amino]-2-oxoethyl 3-phenyl-1-(4-sulfamoylphenyl)-1H-pyrazole-4-carboxylate]
[1]
  inhibition at 10 µM: 28.7%
[2]
  inhibition at 10 µM: 42.7%
[3]
  inhibition at 10 µM: 45.4%
[4]
  inhibition at 10 µM: 39.5%
[5]
  inhibition at 10 µM: 46.6%
[6]
  inhibition at 10 µM: 5.67%
[7]
  inhibition at 10 µM: 16.6%
[8]
  IC50: 0.39 µM and 0.395 µM
[9]
  inhibition at 10 µM: 73.6%
[10]
  inhibition at 10 µM: 47.1%
[11]
  inhibition at 10 µM: 63.9%
[12]
  inhibition at 10 µM: 72.7%
[13]
  inhibition at 10 µM: 78.8%
[14]
  inhibition at 10 µM: 75.8%
[15]
  inhibition at 10 µM: 39.1%
[16]
  inhibition at 10 µM: 60.9%
[17]
  inhibition at 10 µM: 60%
[18]
  inhibition at 10 µM: 52.2%
[19]
  inhibition at 10 µM: 60.6%
[20]
  inhibition at 10 µM: 46%
[21]
  inhibition at 10 µM: 58.5%
[22]
  inhibition at 10 µM: 63.5%
[23]
  inhibition at 10 µM: 60.3%
[24]
  inhibition at 10 µM: 38.2%
[25]
  inhibition at 10 µM: 19.3%
[26]
  inhibition at 10 µM: 76.8%
[27]
  inhibition at 10 µM: 51.7%
[28]
  inhibition at 10 µM: 54.7%
[29]
  inhibition at 10 µM: 32.4%
[30]
  inhibition at 10 µM: 49%
